Data reported in patent US9738634B2, “Heterocyclic amide compound and herbicide” (SYNGENTA PARTICIPATIONS AG, priority 2013, dated 2017).

Legend:
Format in all cases: in vivo
[1] = system: bulrush; assay: Test Example 2: weedkilling efficacy, growth period weed treatment in the submerged state; B: bulrush; settings: treatment dosage 252 g/ha
In short: (§1)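 Seedlings at 1-2 leaves in 4 cm-deep submerged alluvial soil received emulsion formulations on the water surface, dosed per hectare; effects were judged 3 weeks on.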

[2] = system: birds-eye speedwell; assay: Test Example 3: weedkilling efficacy through soil treatment; p: birds-eye speedwell; settings: treatment dosage 315 g/ha
In short: (§2)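 Crop and weed responses were judged three weeks after a uniform surface spray of the water-diluted emulsion at the given g/ha rate. Seeds sat beneath about 1.5 cm of sterilized diluvial soil, and boxes stood in a greenhouse at 25 to 30° C.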

[3] = system: Indian mallow; assay: Test Example 4: weedkilling efficacy by foliar treatment; K: Indian mallow; settings: treatment dosage 315 g/ha
Procedure: (§3) Testing of Weedkilling Efficacy by Foliar Treatment
(§4) Sterilized diluvial soil was introduced into 21 cm long, 13 cm wide, 7 cm deep plastic boxes, and seeds of crabgrass, green foxtail, barnyard grass, wild oat, black-grass, Italian ryegrass, common wind-grass, Indian mallow, redroot pigweed, fig-leafed goosefoot, chickweed, catchweed, birds-eye speedwell, corn, soybean, rice, wheat, beet and rapeseed were each spot-sown, and covered with about 1.5 cm of soil, then the plants were grown in a greenhouse at 25 to 30° C.
(§5) After they had grown for 14 days, emulsions of compounds of the present invention prepared according to compounding example 2 were diluted with water to give the specified dosages, and applied uniformly onto the stem and leaf parts with a small sprayer. 3 weeks after the pesticide treatment the effect on each type of plant was investigated on the basis of the assessment criteria of test example 1.
(§6) A: barnyard grass, B: bulrush, C: oval-leafed pondweed, D: crabgrass, E: green foxtail, F: barnyard grass, G: wild oat, H: black-grass, I: Italian ryegrass, J: common wind-grass, K: Indian mallow, L: redroot pigweed, M: fig-leafed goosefoot, N: chickweed, O: catchweed, p: birds-eye speedwell, a: transplanted rice, b: directly sown rice, c: corn, d: soybean, e: wheat, f: beet, g: rapeseed
(§7) Further, pesticide dosage (g/ha) indicates the concentration regulated such that treatment was with only the stated number of grams (g), when calculated per hectare (ha).

[4] = system: green foxtail; assay: Test Example 3: weedkilling efficacy through soil treatment; E: green foxtail; settings: treatment dosage 315 g/ha
In short: as §2

[5] = system: transplanted rice; assay: Test Example 1: preemergent weed treatment in the submerged state, effect on crop; a: transplanted rice; settings: treatment dosage 252 g/ha
In short: (§8)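 Submerged pre-emergence treatment, water-surface application of compound emulsion at g/ha dosages; 4 cm flooded alluvial soil, weeds sown and 2.5-leaf rice transplanted same day. Rated after 3 weeks, greenhouse.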

[6] = system: soybean; assay: Test Example 3: soil treatment, effect on crop; d: soybean; settings: treatment dosage 315 g/ha
In short: as §2

[7] = system: chickweed; assay: Test Example 4: weedkilling efficacy by foliar treatment; N: chickweed; settings: treatment dosage 315 g/ha
Procedure: as §3, §4, §5, §6, §7

[8] = system: oval-leafed pondweed; assay: Test Example 1: weedkilling efficacy, preemergent weed treatment in the submerged state; C: oval-leafed pondweed; settings: treatment dosage 252 g/ha
In short: as §8

[9] = system: beet; assay: Test Example 3: soil treatment, effect on crop; f: beet; settings: treatment dosage 315 g/ha
In short: as §2

[10] = system: wheat; assay: Test Example 4: foliar treatment, effect on crop; e: wheat; settings: treatment dosage 315 g/ha
Procedure: as §3, §4, §5, §6, §7

[11] = system: crabgrass; assay: Test Example 4: weedkilling efficacy by foliar treatment; D: crabgrass; settings: treatment dosage 315 g/ha
Procedure: as §3, §4, §5, §6, §7

[12] = system: redroot pigweed; assay: Test Example 4: weedkilling efficacy by foliar treatment; L: redroot pigweed; settings: treatment dosage 315 g/ha
Procedure: as §3, §4, §5, §6, §7

[13] = system: Italian ryegrass; assay: Test Example 4: weedkilling efficacy by foliar treatment; I: Italian ryegrass; settings: treatment dosage 315 g/ha
Procedure: as §3, §4, §5, §6, §7

[14] = system: birds-eye speedwell; assay: Test Example 4: weedkilling efficacy by foliar treatment; p: birds-eye speedwell; settings: treatment dosage 315 g/ha
Procedure: as §3, §4, §5, §6, §7

[15] = system: chickweed; assay: Test Example 3: weedkilling efficacy through soil treatment; N: chickweed; settings: treatment dosage 315 g/ha
In short: as §2

[16] = system: barnyard grass; assay: Test Example 1: weedkilling efficacy, preemergent weed treatment in the submerged state; A: barnyard grass; settings: treatment dosage 252 g/ha
In short: as §8

[17] = system: corn; assay: Test Example 3: soil treatment, effect on crop; c: corn; settings: treatment dosage 315 g/ha
In short: as §2

[18] = system: black-grass; assay: Test Example 3: weedkilling efficacy through soil treatment; H: black-grass; settings: treatment dosage 315 g/ha
In short: as §2

[19] = system: bulrush; assay: Test Example 1: weedkilling efficacy, preemergent weed treatment in the submerged state; B: bulrush; settings: treatment dosage 252 g/ha
In short: as §8

[20] = system: directly sown rice; assay: Test Example 3: soil treatment, effect on crop; b: directly sown rice; settings: treatment dosage 315 g/ha
In short: as §2

[21] = system: corn; assay: Test Example 4: foliar treatment, effect on crop; c: corn; settings: treatment dosage 315 g/ha
Procedure: as §3, §4, §5, §6, §7

[22] = system: redroot pigweed; assay: Test Example 3: weedkilling efficacy through soil treatment; L: redroot pigweed; settings: treatment dosage 315 g/ha
In short: as §2

[23] = system: black-grass; assay: Test Example 4: weedkilling efficacy by foliar treatment; H: black-grass; settings: treatment dosage 315 g/ha
Procedure: as §3, §4, §5, §6, §7

[24] = system: catchweed; assay: Test Example 4: weedkilling efficacy by foliar treatment; O: catchweed; settings: treatment dosage 315 g/ha
Procedure: as §3, §4, §5, §6, §7

[25] = system: soybean; assay: Test Example 4: foliar treatment, effect on crop; d: soybean; settings: treatment dosage 315 g/ha
Procedure: as §3, §4, §5, §6, §7

[26] = system: directly sown rice; assay: Test Example 4: foliar treatment, effect on crop; b: directly sown rice; settings: treatment dosage 315 g/ha
Procedure: as §3, §4, §5, §6, §7

[27] = system: beet; assay: Test Example 4: foliar treatment, effect on crop; f: beet; settings: treatment dosage 315 g/ha
Procedure: as §3, §4, §5, §6, §7

[28] = system: Indian mallow; assay: Test Example 3: weedkilling efficacy through soil treatment; K: Indian mallow; settings: treatment dosage 315 g/ha
In short: as §2

[29] = system: fig-leafed goosefoot; assay: Test Example 3: weedkilling efficacy through soil treatment; M: fig-leafed goosefoot; settings: treatment dosage 315 g/ha
In short: as §2

[30] = system: oval-leafed pondweed; assay: Test Example 2: weedkilling efficacy, growth period weed treatment in the submerged state; C: oval-leafed pondweed; settings: treatment dosage 252 g/ha
In short: as §1

[31] = system: green foxtail; assay: Test Example 4: weedkilling efficacy by foliar treatment; E: green foxtail; settings: treatment dosage 315 g/ha
Procedure: as §3, §4, §5, §6, §7

[32] = system: fig-leafed goosefoot; assay: Test Example 4: weedkilling efficacy by foliar treatment; M: fig-leafed goosefoot; settings: treatment dosage 315 g/ha
Procedure: as §3, §4, §5, §6, §7

[33] = system: barnyard grass; assay: Test Example 2: weedkilling efficacy, growth period weed treatment in the submerged state; A: barnyard grass; settings: treatment dosage 252 g/ha
In short: as §1

[34] = system: crabgrass; assay: Test Example 3: weedkilling efficacy through soil treatment; D: crabgrass; settings: treatment dosage 315 g/ha
In short: as §2

[35] = system: Italian ryegrass; assay: Test Example 3: weedkilling efficacy through soil treatment; I: Italian ryegrass; settings: treatment dosage 315 g/ha
In short: as §2

CC1=C(c2cccs2)C(=O)N(C(C)(C)C(=O)Nc2cccc(Cl)n2)CO1 [B-2-01]
B (bulrush) weedkilling efficacy grade [1]: 5 (weed kill ratio 90% or more, (practically complete withering)) | P (birds-eye speedwell) weedkilling efficacy grade [2]: 5 (weed kill ratio 90% or more, (practically complete withering)) | K (Indian mallow) weedkilling efficacy grade [3]: 3 (weed kill ratio 40% or more, less than 70%) | E (green foxtail) weedkilling efficacy grade [4]: 5 (weed kill ratio 90% or more, (practically complete withering)) | a (transplanted rice) effect on crop grade [5]: 2 (weed kill ratio 20% or more, less than 40%) | d (soybean) effect on crop grade [6]: 0 (weed kill ratio 5% or less (practically no effect)) | N (chickweed) weedkilling efficacy grade [7]: 4 (weed kill ratio 70% or more, less than 90%) | C (oval-leafed pondweed) weedkilling efficacy grade [8]: 5 (weed kill ratio 90% or more, (practically complete withering)) | f (beet) effect on crop grade [9]: 4 (weed kill ratio 70% or more, less than 90%) | e (wheat) effect on crop grade [10]: 1 (weed kill ratio 5% or more, less than 20%) | D (crabgrass) weedkilling efficacy grade [11]: 5 (weed kill ratio 90% or more, (practically complete withering)) | L (redroot pigweed) weedkilling efficacy grade [12]: 5 (weed kill ratio 90% or more, (practically complete withering)) | I (Italian ryegrass) weedkilling efficacy grade [13]: 5 (weed kill ratio 90% or more, (practically complete withering)) | P (birds-eye speedwell) weedkilling efficacy grade [14]: 0 (weed kill ratio 5% or less (practically no effect)) | N (chickweed) weedkilling efficacy grade [15]: 3 (weed kill ratio 40% or more, less than 70%) | A (barnyard grass) weedkilling efficacy grade [16]: 5 (weed kill ratio 90% or more, (practically complete withering)) | c (corn) effect on crop grade [17]: 0 (weed kill ratio 5% or less (practically no effect)) | H (black-grass) weedkilling efficacy grade [18]: 5 (weed kill ratio 90% or more, (practically complete withering)) | B (bulrush) weedkilling efficacy grade [19]: 5 (weed kill ratio 90% or more, (practically complete withering)) | b (directly sown rice) effect on crop grade [20]: 5 (weed kill ratio 90% or more, (practically complete withering)) | c (corn) effect on crop grade [21]: 0 (weed kill ratio 5% or less (practically no effect)) | L (redroot pigweed) weedkilling efficacy grade [22]: 4 (weed kill ratio 70% or more, less than 90%) | H (black-grass) weedkilling efficacy grade [23]: 5 (weed kill ratio 90% or more, (practically complete withering)) | O (catchweed) weedkilling efficacy grade [24]: 4 (weed kill ratio 70% or more, less than 90%) | d (soybean) effect on crop grade [25]: 5 (weed kill ratio 90% or more, (practically complete withering)) | b (directly sown rice) effect on crop grade [26]: 5 (weed kill ratio 90% or more, (practically complete withering)) | f (beet) effect on crop grade [27]: 4 (weed kill ratio 70% or more, less than 90%) | K (Indian mallow) weedkilling efficacy grade [28]: 3 (weed kill ratio 40% or more, less than 70%) | M (fig-leafed goosefoot) weedkilling efficacy grade [29]: 4 (weed kill ratio 70% or more, less than 90%) | C (oval-leafed pondweed) weedkilling efficacy grade [30]: 5 (weed kill ratio 90% or more, (practically complete withering)) | E (green foxtail) weedkilling efficacy grade [31]: 5 (weed kill ratio 90% or more, (practically complete withering)) | M (fig-leafed goosefoot) weedkilling efficacy grade [32]: 4 (weed kill ratio 70% or more, less than 90%) | A (barnyard grass) weedkilling efficacy grade [33]: 5 (weed kill ratio 90% or more, (practically complete withering)) | D (crabgrass) weedkilling efficacy grade [34]: 5 (weed kill ratio 90% or more, (practically complete withering)) | I (Italian ryegrass) weedkilling efficacy grade [35]: 5 (weed kill ratio 90% or more, (practically complete withering))
